We go through two molecules from US11344510B2, “Arylcyclohexylamine derivatives and their use in the treatment of psychiatric disorders” (Gilgamesh Pharmaceuticals, Inc., priority 2019, dated 2022).

Counter-ions that a name gives are not always drawn. Like-named read-outs stand apart in the source and are kept apart here.

Data set [1] deals with MK-801 binding site of the N-methyl-D-aspartate receptor (NMDAR). The data set can be described thus: NMDAR radioligand binding with [3H]MK-801, Method A. The conditions noted are these: MK-801 site, Method A, Wistar rat brain (minus cerebellum), 5.0 nM [3H]MK-801; read-out: NMDAR Ki ± SEM. On the set-up: species or system Wistar rat. On the procedure: Radioligand Binding—Method A. Affinity of the test compounds for NMDAR was determined in radioligand binding experiments with [^3H]MK-801 by Eurofins Panlabs, Inc., using methods adapted from the literature (Javitt et al. 1987; Reynolds et al. 1989) and under the conditions described in Table 12.

Data set [2] addresses MK-801 site of NMDAR (Rattus norvegicus, UniProt P35439). The conditions noted are these: read-out: NMDAR Ki ± SEM, from Ebert et al. 1997; cited from earlier work.
A short description of data set [3]: Oral bioavailability in rats, Method A. The conditions noted are these: plasma, Sprague Dawley rats. It is filed as in vivo. As for the experimental part: Animals. Male Sprague Dawley rats were used in these studies Animals were randomly assigned to treatment groups and were fasted overnight before oral dosing.
Drugs. The test compound was dissolved in normal saline and administered intravenously (iv) or orally (po) at a dose of 10 mg/kg (calculated based on freebase) and at a volume of 5 mL/kg body weight. The compound was tested as the racemate (indicated by “rac” nomenclature).
Sample Collection and Bioanalysis. Blood samples were collected through external jugular vein (via cannulation) at 0.083, 0.25, 0.5, 1, 2, 4, 8 and 24 h post-dose (total 8 time points/rat, 4 rats per administration route). At each time point, ˜0.2 mL of blood was withdrawn and transferred into a pre-labeled 0.5 mL of micro centrifuge tube containing 4 μL of 200 mM K2EDTA solution as anticoagulant and mixed gently by inverting the tube to facilitate mixing of anticoagulant with the blood. Blood samples were kept on ice until centrifugation. The collected blood samples were centrifuged at 4000 rpm for 10 min at 4° C. Plasma samples were separated after centrifugation, transferred into pre-labeled tubes, and stored at −70° C. until bioanalysis. For bio analysis, 50 μL aliquots of plasma study samples or calibration standards were added to pre-labeled eppendorf tubes and 10 μL of an internal standard solution (diclofenac, 5 μg/mL in 50:50 v/v methanol:water) was added. Samples were quenched with 500 μL of precipitation solution (0.1% v/v formic acid in acetonitrile) and vortexed. All the samples were centrifuged at 14,000 rpm for 10 minutes at 4° C. Following centrifugation, 5 μL of each clear supernatant was analyzed with a fit-for-purpose LC-MS/MS method, with authentic samples of the analyte used for calibration and identification.
Data Analysis. Pharmacokinetic parameters were estimated using the non-compartmental analysis tool of Phoenix® WinNonlin software (Ver 8.1). The drug concentrations of samples below the lower limit of quantitation (LLOQ) were designated as zero.

One may read the Ki as the dissociation constant of the complex between target and ligand, obtained from inhibition or displacement. On to `CNC1(c2ccccc2)CCCCC1=O` (racemic) [Compound 14rac, 2-(methylamino)-2-phenylcyclohexan-1-one hydrochloride], for which the inhibition constant (Ki) in data set [1] came to 760 nM.
As usually defined, the Cmax is the maximum level reached in the sampled fluid or tissue. `CNC1(c2ccccc2Cl)CCCCC1=O` (racemic) [rac-ketamine, racemic ketamine, reference compound]: the inhibition constant (Ki) in data set [2] was 530 ± 78 nM. Moreover, the AUC(0-t) in data set [3] (male, rat, 10 mg/kg iv, read-out: AUC0-last (iv) (converted)) was 1340 ng·h/mL; in data set [3] (male, rat, 10 mg/kg po, read-out: AUC0-last (po) (converted)), 121 ng·h/mL. The half-life stood at 41.6 min in data set [3] (male, rat, 10 mg/kg iv, read-out: t1/2 (iv)) and 33.7 min in data set [3] (male, rat, 10 mg/kg po, read-out: t1/2 (po)). Besides, the peak level in data set [3] (male, rat, 10 mg/kg po) (Cmax) was 190 ng/mL. The F in data set [3] (10 mg/kg) is 9%.
